Results on five compounds are retold here after patent US10857180B2, “Pharmaceutical composition for improving health, cure abnormalities and degenerative disease, achieve anti-aging effect of therapy and therapeutic effect on mammals and method thereof” (priority 2014, dated 2020).

≈ marks a conversion by molar mass, not a printed value. Where two headings read alike, the source gives them in different places.

Data set [1] deals with renal cell carcinoma (PA) cells. The experiment in a line: Viability of PA tumor cells (trypan blue, crystal violet; live-dead). In kind it is cell-based, rat. To be noted: for IC50: Rattus norvegicus; for dose for 50% live, 50% dead: natural isotope distribution. From the text: To make the analysis, the cell suspension, after it was exposed to the action of materials, in a volume of 20 mcl was mixed with 20 mcl of trypan blue solution and resuspended. The obtained solution was placed in a hemocytometer chamber for visual analysis and quantitative estimation of the cells. To make the quantitative estimation of the cells, they were separated from the substrate using Versene solution and counted by staining cells with trypan. A change in the color of a cell was indicative of the violation of intactness of the cell membrane, and the more pronounced was the coloration, the less viable the cell was. […] They are easily distinguishable from dark damaged cells and easily identified with ordinary light microscope.
Alluding to the above, staining the Cells with Crystal Violet and their Quantitative Analysis will be discussed. Utilization of this method of assessment in the experiment makes it possible to quantify cells classified according to the living-dead criterion. The method is based on statistical evaluation of cells able to adhere to the substrate (to the plastic plate), cells capable of further proliferation. The criterion of the evaluation is the degree of optical permeability of a well with the cell sediment for a luminous flux of a certain wavelength. Removal of the culture medium from the wells is also accompanied by removal of non-adhering and unstained cells from the substrate, and adhesion and staining of the residue left on the substrate provides a quantitative characteristic of the number of cells which are capable of further division and multiplication.
Alluding to the above, viable tumor cells capable of further proliferation were fixed to the plastic surface and stained blue (after they were exposed to the action of components with natural distribution of isotopes) using the dye powder dissolved in 70% methanol solution. After 10 minutes the dye was removed from the wells with a micropipette and the cells were thoroughly rinsed three times with clean running water. The cell sediment fixed by the dye was dissolved with ethanol followed by determination of its concentration (which is indicative of the number of viable cells) and fixed via multi-well spectrophotometer with an excitation wave 540 nm in length.
Analysis of the effect of all components on the renal cell carcinoma (PA) was conducted to determine the relationship between the amount of the preparation (concentration characteristics of the component) and the quantitative characteristics of the cells. Assessment of the effect of the components was carried out on 2 concentration models with 30 and 300 thousand original tumor cells. After the cells were cultured, cell suspensions were prepared in the plates with the culture medium and an effect of the preparations (in various concentrations) on the tumor cells was assessed. The experiment was started with the concentration of 10 mg of the active substance per 1 ml of the solvent (saline with 5% glucose).
After the action of components with natural isotope distribution on PA tumor cells (in all 9 concentration dilutions of the preparations), they were stained with trypan blue. Staining cells (after the effect of the components) in blue is indicative of the respiratory impairment of the cells, which allows of classifying them as non-viable tumor units. The part of the cells remained uncolored is characterized as viable with the ability for further proliferation. […] The assessment was performed on 14 plates with 300 thousand cells in each well by counting the number of viable cells in the Goryaev chamber. Quantitative analysis of the cells was performed visually every 10 hours of the experiment.

The subject of data set [2] is normal rat kidney cells (NRK cell line). Briefly: Effect on normal rat kidney cells versus Doxorubicin. To be noted: for live cells: 16 mcg/ml. An excerpt: An immortalized cell line is a stable, capable of unlimited proliferation cell line that consists of cells with […] in culture.
Data set [3] relates to stem cells derived from rat fibroblasts (RF). In kind it is cell-based.
Data set [4] deals with normal rat kidney cells (NRK cell line). Briefly: Scratch assay, NRK cells. It counts as cell-based. To be noted: Doxorubicin 15 ng/ml; control 30 hours.
Procedure: (§1) The cells of A-549, A-431, NRK, HaCaT, MM-4, normal fibroblasts (derived from the Bank of Cell Lines from human and animal tissues, R. E. Kavetsky Institute of Experimental Pathology, Oncology and Radiobiology, National Academy of Sciences of Ukraine) were cultured in complete culture medium RPMI 1640/DMEM (PAA, Austria) (depending on the cell type) supplemented with 10% fetal calf serum (PAA, Austria) and incubated in 5% CO2 humidified atmosphere at 37° C. The culture medium was replaced in 2 to 3 days and the cells were passaged in 4 to 5 days.
(§2) Analysis of the influence of the components under study on the cell migration rate was performed using the scratch assay method. Cells (5×10^4/well) were seeded into the wells of a 12-well plate in 2 repeats in RPMI-1640/DMEM culture medium supplemented with 10% PBS, 40 mcg/ml of gentamicin and incubated in 5% CO2 humidified atmosphere at 37° C. for 24 hours.
(§3) The plate was incubated in a CO2 incubator for additional 48 hours. After the cells formed a dense monolayer it was damaged (by making a “scratch”) and the growth medium was replaced to remove cell debris and smooth the edges of the “scratch.” The rate of cell migration was analyzed using an inverted microscope and by photographing cells in the area of injury. The migration activity of cells was fixed at several time points (depending on the cell line analyzed). The microphotomicrographs were analyzed and the cell incubation time needed to restore the monolayer was determined for all experimental groups.
Data set [5] deals with healthy human skin cells (HaCaT cell line). The experiment in a line: Scratch assay, HaCaT cells. In kind it is cell-based. The settings on record: Doxorubicin 15 ng/ml and 5 ng/ml.
Procedure: as §1
(§4) Analysis of the influence of the components under study on the cell migration rate was performed using the scratch assay method. […]
(§5) The plate was incubated in a CO2 incubator for additional 48 hours. After the cells formed a dense monolayer it was damaged (by making a “scratch”) and the growth medium was replaced to remove cell debris and smooth the edges of the “scratch.” The rate of cell migration was analyzed using an inverted microscope and by photographing cells in the area of injury. The migration activity of cells was fixed at several time points (depending on the cell line analyzed). The microphotomicrographs were analyzed and the cell incubation time needed to restore the monolayer was determined for all experimental groups. […]
Data set [6] has as its system human melanoma tumor cells (MM-4 cell line). Briefly: Scratch assay, MM-4 cells. It counts as cell-based. The settings on record: Doxorubicin at 2 concentrations (0.1 and 0.01 mcg/ml).
Procedure: as §1, §4, §5
A further data set deals with A-549 cell line. The experiment in a line: Scratch assay, A-549 cells.
The test system of data set [7] is human epidermoid carcinoma cells (A-431 cell line). Briefly: Scratch assay, A-431 cells.
Procedure: as §1, §4, §5
Data set [8] deals with renal cell carcinoma (PA) cells. The experiment in a line: Immunocytochemistry (H-Score) of PA cells. It counts as cell-based, rat. On the procedure: When making the immunocytochemistry (ICC) assay, cells on microscope glasses (cytospin preparations) were fixed in the solution (methanol+acetone 1:1) for 2 hours at t 20° C. and incubated with 1% solution of bovine serum albumin (BSA) for 20 minutes. Then the monoclonal antibodies—CD44 (Diagnostic BioSystems), E-cadherin (ThermoScientific), N-cadherin (NeoMarker, BioLegend)—were applied for 60 minutes, after which the Poly Vue imaging system conjugated with peroxidase was used and the enzyme activity was detected using diaminobenzidine (ThermoScientific) as a substrate.
After the immunocytochemical reaction the preparations were washed with water and counterstained with hematoxylin-eosin (for 15-30 seconds). The results were analyzed by counting cells with expression (brown colored cells), using a light microscope and were assessed using the classical H-Score method: S=1×A+2×B+3×C, where S is the H-Score index giving a range of 0 (protein is not detected) to 300 (high-level expression in 100% of the cells); A is the percentage of weakly stained cells, B is the percentage of moderately stained cells and C is the percentage of strongly stained cells.

For data set [9], the system named is normal rat kidney cells (NRK line). Briefly: Immunocytochemistry of NRK cells. It counts as cell-based. On the procedure: When making the immunocytochemistry (ICC) assay, cells on microscope glasses (cytospin preparations) were fixed in the solution (methanol+acetone 1:1) for 2 hours at t 20° C. and incubated with 1% solution of bovine serum albumin (BSA) for 20 minutes. Then the monoclonal antibodies-CD44 (Diagnostic BioSystems), E-cadherin (ThermoScientific), N-cadherin (NeoMarker, BioLegend), SLUG (GeneTex)—were applied for the time period specified by the manufacturer (30 to 60 minutes), after which the Poly Vue imaging system conjugated with peroxidase was used and the enzyme activity was detected using diaminobenzidine (ThermoScientific) as a substrate. After the immunocytochemical reaction the preparations were washed with water and counterstained with hematoxylin-eosin (for 15 to 30 seconds).
The results were analyzed by counting cells with expression (brown colored cells) using a light microscope, and were assessed using the classical H-Score method: S=1×A+2×B+3×C, where S is the H-Score index giving a range of 0 (protein is not detected) to 300 (high-level expression in 100% of the cells); A is the percentage of weakly staining cells, B is the percentage of moderately staining cells and C is the percentage of strongly staining cells.

[10] abbreviates: Zn sulfate 80 mcg/ml, trypan blue.

Procedure for A-549 cell line: as §1, §2, §3

Take `COc1cccc2c1C(=O)c1c(O)c3c(c(O)c1C2=O)C[C@@](O)(C(=O)CO)C[C@@H]3O[C@H]1C[C@H](N)[C@H](O)[C@H](C)O1` [Doxorubicin]: the dead cells in data set [1] (Doxorubicin 0.64 mcg/ml) was found to be 39%; in data set [1] (Doxorubicin 16 mcg/ml), 95%. Further, the live cells in data set [1] (Doxorubicin 0.64 mcg/ml) was 61%; in [1] (Doxorubicin 16 mcg/ml), 5%; in data set [2] (within 30 min), “live cells are virtually absent”; in data set [2] (within 48 hours), “live cells are absent”. Moreover, the IC50 amounted to 3.2 µg/mL (≈ 5.89 µM) in [1] (crystal violet and trypan blue, read-out: concentration that kills 50% of the tumor cells); 3.2 µg/mL (≈ 5.89 µM) in data set [1] (read-out: dose that killed 50% of tumor cells). Besides, the “effect on normal NRK cells” value is listed as “causing death of normal NRK cells” in [2] (3 to 0.01 mcg/ml) and “complete death” in data set [2] (400 to 16 mcg/ml, 48 hours). Besides, the “time of restoration of the cell interval” value in data set [3] (Doxorubicin 15 ng/ml or 5 ng/ml) is > 72 h. For the same compound, the death of cells in [3] (Doxorubicin 15 ng/ml, within 96 hours after administration) is 95%. Besides, the “time of restoration of the damaged monolayer” value in data set [4] came to 72 h. Moreover, the cell migration rate entry in data set [5] is reported as “inhibition of the cell migration rate”. The “period of closing of the gap” value in data set [6] was 48 h. The “time of restoration of the cell monolayer” value with A-549 cell line (Doxorubicin 0.02 mcg/ml) is 60 h; with A-549 cell line (Doxorubicin 0.2 mcg/ml), < 24 h. Further, the “time of full restoration of the cell monolayer” value in the data set on A-549 cell line (Doxorubicin (2 mcg/ml per FIG. 113-116)) was 24 h. For the same compound, the “time for the cell monolayer repair” value in data set [7] (Doxorubicin 0.02 mg/ml) was determined as 48 h. Further, the “time to close up the cellular gap” value in data set [7] (Doxorubicin 0.1 mcg/ml, control 48 hours) came out at 45 h.
With `[Cl-].[K+]` [K], in [1], the “dose for 50% live, 50% dead” value is “about 2 mg”.
Turning to `O=S(=O)([O-])[O-].[Mg+2]` [Mg], in data set [1], the “dose for 50% kill, times as high as Doxorubicin EBEWE” value turned out to be 1600 times and the “dose for 50% live, 50% dead” value is given as “about 5 mg”.
For the compound `O=S(=O)([O-])[O-].[Zn+2]` [Zn], the “dose for 50% kill, times as high as Doxorubicin EBEWE” value in [1] was determined as 100 times. In data set [1] (Zn sulfate 16 mcg/ml), this compound registered a dead tumor cells of 7% and a live tumor cells of 93%. Further, in [1] (setting [10]), the dead tumor cells is reported as 75% and the live tumor cells came out at 25%.
As to `O=S(=O)([O-])[O-].[64Zn+2]` [^64Zn—Z2], the “CD44 marker positive cells, H-Score scale” value in [8] (3.2 mcg/ml) is 118 units. Besides, in data set [8] (^64Zn—Z2 3.2 and 0.128 mcg/ml), the N-cadherin level result is reported as “does not change” and the “number of E-cadherin-positive cells” value is “grows”. Further, the “E-cadherin-positive cells, H-Score scale” value in [8] (dose D1 0.128 mcg/ml) was found to be 300. Besides, the “phenotype of normal cells” value in data set [9] was “has not changed”.
